Laboratory results reported in patent US8501794B2, “Compounds as cannabinoid receptor ligands” (priority 2007, dated 2013).

What was measured:
rat CB2 [1] = biological target: T1, rat CB2 (Rattus norvegicus, UniProt Q9QZN9); assay: rat CB2 radioligand binding assay ([3H]CP-55,940 competition); parameters: expressed in transfected cells; host or cells: HEK293
T1 sequence (Q9QZN9 1-360): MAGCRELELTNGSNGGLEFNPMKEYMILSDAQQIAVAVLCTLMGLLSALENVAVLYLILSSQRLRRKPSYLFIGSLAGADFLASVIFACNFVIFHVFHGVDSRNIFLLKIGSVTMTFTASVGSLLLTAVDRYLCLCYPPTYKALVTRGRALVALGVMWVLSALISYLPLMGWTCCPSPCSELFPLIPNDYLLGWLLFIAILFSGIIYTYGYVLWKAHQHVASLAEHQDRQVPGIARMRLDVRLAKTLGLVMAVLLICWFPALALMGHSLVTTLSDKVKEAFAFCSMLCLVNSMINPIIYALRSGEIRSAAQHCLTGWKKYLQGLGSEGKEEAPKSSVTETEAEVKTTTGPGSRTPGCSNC

human CB2 receptors = biological target: T2, human CB2 receptors (Homo sapiens, UniProt P34972); assay: human CB2 radioligand binding assay ([3H]CP-55,940 competition)
T2 construct: expressed in transfected cells; host or cells: HEK293
T2 sequence (P34972 whole entry): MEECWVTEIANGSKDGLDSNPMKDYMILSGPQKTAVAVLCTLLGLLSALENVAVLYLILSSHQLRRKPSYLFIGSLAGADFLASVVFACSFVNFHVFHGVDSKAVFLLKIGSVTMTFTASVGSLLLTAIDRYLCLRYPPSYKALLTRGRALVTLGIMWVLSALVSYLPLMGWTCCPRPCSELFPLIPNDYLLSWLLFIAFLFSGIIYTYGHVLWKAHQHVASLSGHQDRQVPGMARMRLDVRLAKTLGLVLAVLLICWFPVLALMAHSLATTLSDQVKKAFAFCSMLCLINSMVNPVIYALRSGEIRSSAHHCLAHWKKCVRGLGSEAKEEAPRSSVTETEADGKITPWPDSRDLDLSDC

rat CB2 [2] = biological target: T1, rat CB2; assay: rat CB2 cyclase functional assay (HitHunter cAMP, HEK cells); type: cell-based; parameters: expressed in transfected cells; host or cells: HEK; conditions: forskolin 18 μM

| SMILES | Ki (rat CB2 [1]) [nM] | Ki (human CB2 receptors) [nM] | EC50 (rat CB2 [2]) [nM] |
| --- | --- | --- | --- |
| CC/C=C\c1cn(C(C)(C)C)s/c1=N\C(=O)c1cc(Cl)ccc1OC [Example 25, N-[(5Z)-4-[(1Z)-but-1-enyl]-2-tert-butylisothiazol-5(2H)-ylidene]-5-chloro-2-methoxybenzamide] | 1.6 | 51 | 1.7 |
| CCCCc1cn(C(C)(C)C)s/c1=N\C(=O)[C@@]1(C)CC[C@@H](C(=O)N(C)C)C1(C)C [Example 223, (1S,3R)—N^1-[(5Z)-4-butyl-2-tert-butylisothiazol-5(2H)-ylidene]-N^3,N^3,1,2,2-pentamethylcyclopentane-1,3-dicarboxamide] | 62 | 92 | 5.8 |
| CCCCc1cn(C(C)(C)C)s/c1=N\C(=O)c1cc(C(C)=O)ccc1OC [Example 64, 5-acetyl-N-[(5Z)-4-butyl-2-tert-butylisothiazol-5(2H)-ylidene]-2-methoxybenzamide] | 0.63 | 14 | 0.05 |
| CCCCc1cn(C(C)(C)C)s/c1=N\C(=O)c1cc(C(C)(F)F)ccc1OC [Example 69, N-[(5Z)-4-butyl-2-tert-butylisothiazol-5(2H)-ylidene]-5-(1,1-difluoroethyl)-2-methoxybenzamide] | 1.6 | 18 | 0.043 |
| COc1ccc(C(F)(F)F)cc1C(=O)/N=c1\sn(C(C)(C)C)cc1CC(C)C [Example 143, N-[(5Z)-2-tert-butyl-4-isobutylisothiazol-5(2H)-ylidene]-2-methoxy-5-(trifluoromethyl)benzamide] | 1.8 | 11 | 0.1 |
| CCCCc1cn(C(C)(C)C)s/c1=N\C(=O)C1(C)CCC(C(=O)NC)C1(C)C (stereo not drawn) [Example 100, N^1-[(5Z)-4-butyl-2-tert-butylisothiazol-5(2H)-ylidene]-N^3,1,2,2-tetramethylcyclopentane-1,3-dicarboxamide] | 9.9 | 10 | 0.99 |
| COc1ccc(Cl)cc1C(=O)/N=c1\sn(C(C)(C)C)cc1CCC(C)O (stereo not drawn) [Example 18, N-[(5Z)-2-tert-butyl-4-(3-hydroxybutyl)isothiazol-5(2H)-ylidene]-5-chloro-2-methoxybenzamide] | 4.3 | 86 | 2.7 |
| COc1ccc(C(F)(F)F)cc1C(=O)/N=c1\sn(C(C)(C)C)cc1CCCCF [Example 149, N-[(5Z)-2-tert-butyl-4-(4-fluorobutyl)isothiazol-5(2H)-ylidene]-2-methoxy-5-(trifluoromethyl)benzamide] | 0.15 | 8.3 | 0.23 |
| COc1ccc(Cl)cc1C(=O)/N=c1\sn(C(C)(C)C)cc1C(O)C1CCC1 (stereo not drawn) [Example 34, N-[(5Z)-2-tert-butyl-4-[cyclobutyl(hydroxy)methyl]isothiazol-5(2H)-ylidene]-5-chloro-2-methoxybenzamide] | 1.2 | 3.6 | 0.4 |
| COc1ccc(C#N)cc1C(=O)/N=c1\sn(C(C)(C)C)cc1CC(C)C [Example 145, N-[(5Z)-2-tert-butyl-4-isobutylisothiazol-5(2H)-ylidene]-5-cyano-2-methoxybenzamide] | 6.1 | 58 | 0.078 |
| CCCCc1cn(C(C)(C)C)s/c1=N\C(=O)[C@H]1CC[C@@](C)(C(N)=O)C1(C)C [Example 171, (1R,3S)—N^3-[(5Z)-4-butyl-2-tert-butylisothiazol-5(2H)-ylidene]-1,2,2-trimethylcyclopentane-1,3-dicarboxamide] | 5.8 | 9 | 0.19 |
| CCCCc1cn(C(C)(C)C)s/c1=N\C(=O)c1cc(C=NO)ccc1OC [Example 59, N-[(5Z)-4-butyl-2-tert-butylisothiazol-5(2H)-ylidene]-5-[(hydroxyimino)methyl]-2-methoxybenzamide] | 3.3 | 54 | 0.12 |
| CCOc1ccc(C(F)(F)F)cc1C(=O)/N=c1\sn(C(C)(C)C)cc1CC(C)C [Example 146, N-[(5Z)-2-tert-butyl-4-isobutylisothiazol-5(2H)-ylidene]-2-ethoxy-5-(trifluoromethyl)benzamide] | 3.1 | 24 | 0.29 |
| CCCCc1cn(C(C)(C)C)s/c1=N\C(=O)C1(c2ccccc2)CCCCC1 [Example 94, N-[(5Z)-4-butyl-2-tert-butylisothiazol-5(2H)-ylidene]-1-phenylcyclohexanecarboxamide] | 1.1 | 4.8 | 0.25 |
| CCOCc1cn(C(C)(C)C)s/c1=N\C(=O)c1cc(Cl)ccc1OC [Example 29, N-[(5Z)-2-tert-butyl-4-(ethoxymethyl)isothiazol-5(2H)-ylidene]-5-chloro-2-methoxybenzamide] | 13 | 180 | 0.41 |
| CCCCc1cn(C(C)(C)C)s/c1=N\C(=O)[C@@H]1CC[C@](C)(C(=O)NCC)C1(C)C [Example 210, (1S,3R)—N^3-[(5Z)-4-butyl-2-tert-butylisothiazol-5(2H)-ylidene]-N^1-ethyl-1,2,2-trimethylcyclopentane-1,3-dicarboxamide] | 49 | 36 | 0.19 |
| CCCCc1cn(C(C)(C)C)s/c1=N\C(=O)c1cc(Cl)ccc1OC [Example 1, N-[(5Z)-4-butyl-2-tert-butylisothiazol-5(2H)-ylidene]-5-chloro-2-methoxybenzamide] | 1.5 | 16 | 0.72 |
| COc1ccc(Cl)cc1C(=O)/N=c1\sn(C(C)(C)C)cc1COC(C)C [Example 72, N-[(5Z)-2-tert-butyl-4-(isopropoxymethyl)isothiazol-5(2H)-ylidene]-5-chloro-2-methoxybenzamide] | 7.4 | 19 | 0.054 |
| CCCCc1cn(C(C)(C)C)s/c1=N\C(=O)NC1CCC(C)CC1 (stereo not drawn) [Example 191, N-[(5Z)-4-butyl-2-tert-butylisothiazol-5(2H)-ylidene]-N′-(4-methylcyclohexyl)urea] | 1.8 | 15 | 0.51 |
| COc1ccc(Cl)cc1C(=O)/N=c1\sn(C(C)(C)C)cc1C(O)C(C)C (stereo not drawn) [Example 23, N-[(5Z)-2-tert-butyl-4-(1-hydroxy-2-methylpropyl)isothiazol-5(2H)-ylidene]-5-chloro-2-methoxybenzamide] | 2.7 | 14 | 0.89 |
| CCCCc1cn(C(C)(C)C)s/c1=N\C(=O)c1cc(C(F)(F)F)ccc1OCC1CCCCN1C (stereo not drawn) [Example 196, N-[(5Z)-4-butyl-2-tert-butylisothiazol-5(2H)-ylidene]-2-[(1-methylpiperidin-2-yl)methoxy]-5-(trifluoromethyl)benzamide] | 28.8 | 18 | 2.4 |
| COc1ccc(Cl)cc1C(=O)/N=c1\sn(C(C)(C)C)cc1CCC1CCC1 [Example 36, N-[(5Z)-2-tert-butyl-4-(2-cyclobutylethyl)isothiazol-5(2H)-ylidene]-5-chloro-2-methoxybenzamide] | 0.16 | 1.3 | 0.91 |
| CCCCc1cn(C(C)(C)C)s/c1=N\C(=O)[C@@]1(C)CC[C@@H](C(=O)NC)C1(C)C [Example 218, (1S,3R)—N^1-[(5Z)-4-butyl-2-tert-butylisothiazol-5(2H)-ylidene]-N^3,1,2,2-tetramethylcyclopentane-1,3-dicarboxamide] | 29 | 53 | 1.1 |
| COc1ccc(C#N)cc1C(=O)/N=c1\sn(C(C)(C)C)cc1Cc1ccco1 [Example 51, N-[(5Z)-2-tert-butyl-4-(2-furylmethyl)isothiazol-5(2H)-ylidene]-5-cyano-2-methoxybenzamide] | 8.1 | 140 | 0.3 |
| COc1ccc(Cl)cc1C(=O)/N=c1\sn(C(C)(C)C)cc1COCC(F)F [Example 91, N-[(5Z)-2-tert-butyl-4-[(2,2-difluoroethoxy)methyl]isothiazol-5(2H)-ylidene]-5-chloro-2-methoxybenzamide] | 12 | 45 | 0.1 |
| COc1ccc(C(F)(F)F)cc1C(=O)/N=c1\sn(C(C)(C)C)cc1CCCC(C)(C)O [Example 81, N-[(5Z)-2-tert-butyl-4-(4-hydroxy-4-methylpentyl)isothiazol-5(2H)-ylidene]-2-methoxy-5-(trifluoromethyl)benzamide] | 2.6 | 45 | 0.061 |
| CC(C)(C)n1cc(CCCC#N)/c(=N/C(=O)c2cc(Cl)ccc2OCC(N)=O)s1 [Example 141, 2-(2-amino-2-oxoethoxy)-N-[(5Z)-2-tert-butyl-4-(3-cyanopropyl)isothiazol-5(2H)-ylidene]-5-chlorobenzamide] | 15 | 56 | 0.094 |
| COc1ccc(Cl)cc1C(=O)/N=c1\sn(C(C)(C)C)cc1CCCC(C)=O [Example 75, N-[(5Z)-2-tert-butyl-4-(4-oxopentyl)isothiazol-5(2H)-ylidene]-5-chloro-2-methoxybenzamide] | 4 | 31 | 0.29 |
| CCCCc1cn(C(C)(C)C)s/c1=N\C(=O)C1=CC(=O)CC(C)(C)O1 [Example 125, N-[(5Z)-4-butyl-2-tert-butylisothiazol-5(2H)-ylidene]-2,2-dimethyl-4-oxo-3,4-dihydro-2H-pyran-6-carboxamide] | 1 | 31 | 2.6 |
